Tested on: spontaneously hypertensive rat (SHR)
Test: In vivo model study: telemetry cardiovascular assessment in SHR rats
Settings: male SHR rats, intraperitoneal administration, radiotelemetry, preliminary evaluation
From the text: The objective of this study is to define the magnitude, time course and dose/concentration response relationship of compound 13 antihypertensive effects when administered intraperitoneally (IP) to male SHR rats maintained on standard and low salt diets. In Vivo Phase I: Three male SHR rats, 7-10 weeks of age weighing 150-300 g, will be instrumented with radiotelemetry transmitters. Following an approximate 2-week recovery period, animals will receive a single intraperitoneal dose of test article. Cardiovascular data will be collected for approximately 24 hours following dosing. Cardiovascular data is collected from non-restrained animals implanted with radiotelemetry devices. 1. SHR rats, 7-10 weeks of age weighing 150-300 g, are implanted with radiotelemetry devices. Transmitters are placed subcutaneously in the ventral abdominal region and blood pressure is monitored from the femoral artery. Animals will be allowed to recover at least 10 days prior to data collection. 5. At least 1 hour of baseline is collected from undisturbed animals prior to each dosing. Following test article administration, approximately 24 hours of data is collected from undisturbed animals to assess hemodynamic effects.

CCc1nc(N)nc(N)c1-c1ccc2c(c1)N(CCNC(=O)OC)C(=O)[C@](C)(c1cc(F)cc(F)c1)O2 [Compound 13]
blood pressure reduction in SHR (antihypertensive effect): blood pressure reduction

— US20090215763A1, “SUBSTITUTED BENZOXAZINONES” (P&H Therapeutics, Inc., priority 2008, published 2009)
